Earlier results, collected in patent US20200261389A1 (priority 2014, published 2020).
Read-outs that look alike come from different tables or passages of the source.

Assays:
[1] = tested on: zinc-dependent metalloproteinases; conditions: for reduction of GP shedding: higher concentrations (25-50 mM)
retroviruses = conditions: millimolar concentrations, in vitro
cultured cells = conditions: added to cultured cells
[2] = tested on: Human Foreskin (HF) cells infected with HSV-2-strain G; conditions: 3 to 1.5 mM

c1cnc2c(c1)ccc1cccnc12 [1,10-phenanthroline]
apoptosis / cell death of leukemia cells (leukemia cells): DNA fragmentation and cell death occurred

CNC(=O)[C@@H](NC(=O)[C@H](CC(C)C)[C@H](O)C(=O)NO)C(C)(C)C [BB2516]
inhibition of glycoprotein shedding ([1]; concentration of 0.5 mM): inhibitory effects were observed

COc1ccc(S(=O)(=O)N(Cc2cccnc2)[C@@H](C(=O)NO)C(C)C)cc1 [CGS-27023A]
reduction of GP shedding [1]: reduced GP shedding

O=C(O)CN(CCN(CC(=O)O)CC(=O)O)CC(=O)O [EDTA, ethylenediaminetetraacetic acid]
effect on retroviruses (retroviruses): partial disintegration of viral membranes

O=C(O)CN(CCOCCOCCN(CC(=O)O)CC(=O)O)CC(=O)O [EGTA, ethylene glycol tetraacetic acid]
effect on retroviruses (retroviruses): partial disintegration of viral membranes

CNC(=O)[C@H](Cc1c[nH]c2ccccc12)NC(=O)[C@@H](CC(=O)NO)CC(C)C [GM6001]
inhibition of glycoprotein shedding ([1]; concentration of 5 mM): inhibitory effects were observed

COc1ccc(S(=O)(=O)N(CC(=O)NO)CC(C)C)cc1 [MMP-3 inhibitor II]
reduction of GP shedding [1]: reduced GP shedding

COc1ccc(S(=O)(=O)N2Cc3ccccc3C[C@@H]2C(=O)NO)cc1 [MMP-8 inhibitor I]
inhibition of glycoprotein shedding ([1]; concentration of 5 mM): inhibitory effects were observed

CC(C)C[C@H](CC(=O)NO)C(=O)N[C@@H](Cc1ccc2ccccc2c1)C(=O)N[C@@H](C)C(=O)NCCN [TAPI-I]
reduction of GP shedding [1]: reduced GP shedding

c1ccc(CN(CCN(Cc2ccccn2)Cc2ccccn2)Cc2ccccn2)nc1 [TPEN, N,N,N′,N′-tetrakis-2-pyridyl methyl-ethylene diamine]
apoptosis of cultured cells (cultured cells): induces apoptosis

O=C(O)c1ccccn1 [picolinic acid]
apoptosis / cell death of leukemia cells (leukemia cells): induces apoptosis | apoptosis of infected cells [2]: cause apoptosis of HF infected cells
